From publication PMC10510102, “Efficient Ligand Discovery Using Sulfur(VI) Fluoride Reactive Fragments” (ACS Chemical Biology, 2023)
pKi: −log10 of the molar value.

What was measured:
[1] = biological target: T1, CAII (Homo sapiens, UniProt P00918); experiment: Identification of site of covalent modification by tandem MS; parameters: purchased Sigma Aldrich C6624-500UG; host or cells: E. coli; conditions: for major site of covalent modification: 2 μM CAII, 50 μM SF, 24 h, 20 °C, trypsin digest LC-MS/MS; for minor site of covalent modification: N-terminal peptide 1MSHHWGYGK9
Source text: Tandem MS analyses were subsequently employed for identification of the amino acid residue(s) that was covalently modified. Samples of CAII modified by the resynthesized and purified SFs 2d and 2e were digested using trypsin and analyzed by LC–MS/MS. This identified peptides 59ILNNGH*AFNVEFDDSQDKAVLK80 and 59ILNNGH*AFNVEFDDSQDK76 as the major site(s) of modification on His64 for both 2d (366 Da) (see Figure S6) and 2e (380 Da) (Figure 3b), respectively. Further to this, minor modifications were observed on the N-terminal peptide 1MSHHWGYGK9 at His3 (2d and 2e) and Tyr7 (2d only).
The (resynthesized and purified) SF hits (2d and 2e, 10 mM) were plated into a 384-well plate. Purified CAII was subsequently added across the plate. Final concentrations: 2 μM protein; 50 μM SF. The plate was sealed, centrifuged, and incubated at 20 °C for 24 h, and 15 μL aliquots were subsequently removed and analyzed by intact protein LC–MS. The remaining samples (1 μg) were separated by sodium dodecyl sulfate-polyacrylamide gel electrophoresis to remove excess unbound compounds. Gels were stained with colloidal Comassie InstantBlue, and bands corresponding to CAII were excised, reduced with TCEP (10 mM, 65 °C, 30 min), and alkylated with iodoacetamide (10 mM, rt, 30 min, dark). Samples were digested with trypsin (1:10 E/S, 37 °C, 16 h) in ammonium bicarbonate (100 mM). After removal of the supernatant, peptides were extracted using acetonitrile. Combined supernatants were centrifuged and acidified prior to injection into the LC–MS/MS system. Tandem MS spectra were searched for peptide matches against the sequence for CAII. Raw files were searched using trypsin as the enzyme. Masses corresponding to [SF – HF] were allowed as variable modification(s) on cysteine, histidine, lysine, tyrosine, serine, and threonine as well as the protein N-terminus. MS/MS spectra were manually validated and annotated. […]
4.2. Identification of the site of covalent modification by tandem MS (CAII)
The (resynthesized and purified) SF hits (2d and 2e) were plated into a Greiner 384 PP F-bottom plate from a 10 mM source in DMSO.
Purified CAII diluted from original stock into a buffer made up of HEPES (pH 7.5, 25 mM) and NaCl (50 mM) in distilled MS-grade water (50 µL per well) was subsequently added across the plate. Final concentrations: 2 µM protein; 50 µM SF. The plate was sealed, centrifuged (1 min, 1000 rpm), incubated at 20 °C for 24 h, and 15 µL aliquots were subsequently removed and analyzed by intact protein LC-MS. The remaining samples (1 μg) were separated by SDS-PAGE to remove excess unbound compound. Gels were stained with colloidal Comassie InstantBlue and bands corresponding to CAII were excised, reduced with 10 mM TCEP (65 °C, 30 mins), and alkylated with 10 mM iodoacetamide (r.t., 30 mins, dark). […]

[2] = biological target: T1, CAII; experiment: Kinetic analyses of covalent modification, intact protein LC-MS; type: binding; parameters: purchased Sigma Aldrich C6624-500UG; host or cells: E. coli; conditions: 0.5 μM CAII; 5-100 μM SF; 0-24 h; 20 °C
Procedure: The kinetics of binding were investigated by incubation of the resynthesized and purified SFs 2b–e with CAII at a range of concentrations and analysis by intact protein LC–MS over a 24 h period (see Figure S9). The concentration–response was analyzed based on a two-step model of reversible ligand (L) binding and subsequent irreversible covalent modification of the protein (P) (P + L ⇌ P·L → PL) (see Figure S10).[24] Time courses were fit to a single exponential function to give a kobs for each concentration (Figure 3d). These were then fitted using a Michaelis–Menten model to determine kinact (corresponding to the rate of covalent-bond formation) and KI (corresponding to the recognition of the ligand for the protein pocket) (Figure 3e,f). […]. This is consistent with the strong binding of aryl sulfonamides to the CAII Zn^2+ binding pocket.[33] […] The slow rate of the reaction may be attributed to a suboptimal trajectory of the SF group toward the His64 residue in the reversible bound conformation and/or low nucleophilicity of the residue.[14]
The (resynthesized and purified) SF hits (2b–e, 10 mM) were plated into seven 384-well plates with DMSO to make up identical plates with final concentrations of 100, 50, 20, 10, or 5 μM after adding 15 μL of protein stock solution per well. The percentage of DMSO was kept constant. Purified CAII was subsequently added across all plates. Final concentrations were 0.5 μM protein; 100, 50, 20, 10, or 5 μM SF. The plates were sealed and centrifuged, and the first six plates were immediately queued for analysis by intact protein LC–MS at a temperature of 20 °C with the final plate paused for a 24 h timepoint.
5. CAII – kinetic analyzes
5.1. Protocol for kinetic analyzes (CAII)
The (resynthesized and purified) SF hits (2b–e) were plated into seven Greiner 384 white low volume plate from a 10 mM source in DMSO. Differing volumes were added such that the final concentrations for each compound would be: 100, 50, 20, 10, or 5 µM after adding 15 µL of protein stock solution per well. Volumes of DMSO were made to be consistent for every well. Purified CAII diluted from original stock into a buffer made up of HEPES (pH 7.5, 25 mM) and NaCl (50 mM) in distilled MS-grade water (15 µL per well) was subsequently added across the plates. Final concentrations: 0.5 µM protein; 100, 50, 20, 10, or 5 µM SF. The plates were sealed, centrifuged (1 min, 1000 rpm), and the first six plates were immediately queued for analysis by intact protein LC-MS at a temperature of 20 °C with the final plate paused for a 24 h timepoint. The resulting modification yields were plotted in GraphPad Prism (Version 5.0.4) software against the time of sampling.11 Non-linear regression analyzes were conducted using a ‘one-phase association’ model, with the y=0 value constrained to ‘0’ and plateau value constrained to ‘100’. The observed rate constants (kobs, value ‘K’ in GraphPad) were extracted for each compound at each concentration, then replotted against the corresponding compound concentration. Further non-linear regression analyzes were conducted using a ‘Michaelis-Menten’ model, from which kinact values (‘Vmax’ in GraphPad) and KI values (‘Km’) were extracted. […]
To a Labcyte 384LDV plate containing 96 amine functionalized fragments (10 mM) in DMSO (5 µL per well) was added a stock solution of OSu 2a (10 mM) and NEM (30 mM) in DMSO (5 µL per well). The plate was sealed, centrifuged (1 min, 1000 rpm), and allowed to sit at room temperature for 1 h. After the reaction (assumed product concentration: 5 mM), a Labcyte ECHO© 555 Liquid Handler was used to transfer the library of SFs to a Greiner 384 white low volume plate. […]

| Compound | major site of covalent modification [1] | minor site of covalent modification [1] | pKi [2] | kinact [2] [s⁻¹] | kinact/KI [2] [M⁻¹ s⁻¹] | KI (inactivation) [2] [µM] |
| --- | --- | --- | --- | --- | --- | --- |
| NS(=O)(=O)c1ccc(CCNC(=O)Cc2ccc(S(=O)(=O)F)cc2)cc1 [2e] | His64 | His3 | > 5.30 | 1.8e-05 | > 3.6 |  |
| NS(=O)(=O)Cc1cccc(CNC(=O)Cc2ccc(S(=O)(=O)F)cc2)c1 [2c] |  |  |  | 3.3e-05 | 2 | 16 |
| CC(NC(=O)Cc1ccc(S(=O)(=O)F)cc1)c1cccc(S(N)(=O)=O)c1 (stereo not shown) [2b] |  |  |  | 3.2e-05 | 3.6 | 8.9 |
| NS(=O)(=O)c1cccc(CNC(=O)Cc2ccc(S(=O)(=O)F)cc2)c1 [2d] | His64 | His3 and Tyr7 | > 5.30 | 3e-05 | > 6.1 |  |
